Holding throughout (format): cell-based
One assay has as its system MCF-7 cells. The assay is described as follows: Inhibition of cell proliferation of MCF-7 cells (CCK-8, 9 days). The settings on record: treated for 9 days, CCK-8 kit (Table 6). Summed up: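 Read-out was CCK-8 viability after 9-day continuous exposure (37°C, 5% CO2) of MCF-7 cells plated at 800/well in 10% FBS DMEM across several compound concentrations. Values are proliferation IC50s.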
In general terms: Formazan colour is commonly taken as a measure of viable cells.

Assay [1] has as its target T1, ERα (Homo sapiens, UniProt P03372).
T1 sequence (P03372 1-595): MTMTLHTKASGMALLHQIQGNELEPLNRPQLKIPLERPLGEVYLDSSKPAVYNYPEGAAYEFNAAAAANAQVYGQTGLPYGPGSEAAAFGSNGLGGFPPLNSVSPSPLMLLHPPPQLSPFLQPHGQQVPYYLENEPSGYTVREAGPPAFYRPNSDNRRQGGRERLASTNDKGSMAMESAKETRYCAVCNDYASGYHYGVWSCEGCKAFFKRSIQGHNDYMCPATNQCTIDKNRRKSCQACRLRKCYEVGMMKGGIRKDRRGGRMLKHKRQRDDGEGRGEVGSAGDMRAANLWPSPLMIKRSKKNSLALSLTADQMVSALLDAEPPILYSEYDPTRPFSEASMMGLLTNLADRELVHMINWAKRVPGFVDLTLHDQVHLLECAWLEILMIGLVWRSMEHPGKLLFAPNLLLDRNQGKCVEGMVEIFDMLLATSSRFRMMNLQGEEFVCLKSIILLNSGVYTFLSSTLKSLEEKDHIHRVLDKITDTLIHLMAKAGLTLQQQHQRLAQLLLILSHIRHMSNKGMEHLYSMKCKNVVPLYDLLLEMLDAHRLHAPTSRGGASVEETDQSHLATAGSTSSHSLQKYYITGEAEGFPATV
The assay is described as follows: Degradation of ERα in MCF-7 cells (immunoblotting, 4 h). An outline of the steps: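 Degradation rate reflects ERα band intensity, corrected to an internal reference protein, relative to control. Values come from Western blotting of lysates from MCF-7 cells exposed 4 h at 37°C to compounds at final concentrations of 0.15-1000nM.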
Background: In western blotting, separated proteins are transferred to a membrane and probed.

The target of assay [2] is T1, ERα. The assay is described as follows: Degradation of ERα in T-47D cells (immunoblotting, 4 h). The arrangement: host or cells: T-47D. Summed up: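 ERα protein levels were assessed by immunoblot of RIPA lysates (with protease inhibitor) after 4 h exposure at 37°C. Compound was added in DMSO to T-47D cells at final concentrations of 0.15-1000 nM.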

The text below walks through data of EP4656642A1, “ESTROGEN RECEPTOR PROTEOLYSIS TARGETING CHIMERA COMPOUND AND USE THEREOF” (GAN & LEE PHARM CO., LTD, priority 2023, dated 2024).

Structures are written as SMILES. Where only a bound is given, the exact number is not on record here.

In general, IC50 refers to the concentration that gives 50% inhibition. Read a low IC50 as inhibition by little substance. `O=C1CCC(N2Cc3c(ccc4c3OCC43CCN(C(=O)C4CCN(C(=O)C5CCN(c6ccc([C@@H]7c8ccc(O)cc8CC[C@@H]7c7ccccc7)cc6)CC5)CC4)CC3)C2=O)C(=O)N1` (some centres unmarked) [K36] returned an IC50 with MCF-7 cells of 15.2 nM. In addition, the “Degradation rate (%) of ERα in MCF-7 cells” value stood at 20% on ERα [1] (1nM compound) and 61% on ERα [1] (10nM compound). In addition, the entries for the “Degradation rate (%) of ERα in T-47D cells” value at ERα [2] (1nM compound) and on ERα [2] (10nM compound) were 54% and 76%, respectively.
The corresponding values for `O=C1CCC(N2Cc3c(ccc4c3OCC43CCN(c4ccc(C(=O)N5CCN(c6ccc([C@@H]7c8ccc(O)cc8CC[C@@H]7c7ccccc7)cc6)CC5)nc4)CC3)C2=O)C(=O)N1` (some centres unmarked) [J3] are 8.23 nM, 34%, 49%, 42% and 63%.
Take `O=C1CCC(N2Cc3c(ccc4c3OCC43CCN(C4CN(C5CCN(c6ccc([C@@H]7c8ccc(O)cc8CC[C@@H]7c7ccccc7)cc6)CC5)C4)CC3)C2=O)C(=O)N1` (some centres unmarked) [A58]: the IC50 in the assay with MCF-7 cells amounted to 12.8 nM. The results for the “Degradation rate (%) of ERα in MCF-7 cells” value on ERα [1] (1nM compound) and at ERα [1] (10nM compound) were 42% and 69%, respectively. For the same compound, the “Degradation rate (%) of ERα in T-47D cells” value at ERα [2] (1nM compound) amounted to 35%; at ERα [2] (10nM compound) it was 71%.
The corresponding values for `O=C1CCC(N2Cc3c(ccc4c3OC3(CC4)CCN(C4CCN(C(=O)C5CCN(c6ccc([C@@H]7c8ccc(O)cc8CC[C@@H]7c7ccccc7)cc6)CC5)CC4)CC3)C2=O)C(=O)N1` (some centres unmarked) [G15] are 10.2 nM, -19%, 20%, 39% and 72%.
On to `O=C1CCC(N2Cc3c(ccc4c3OCC43CCN(C(=O)CN4CCN(c5ccc([C@@H]6c7ccc(O)cc7CC[C@@H]6c6ccccc6)cc5)CC4)CC3)C2=O)C(=O)N1` (some centres unmarked) [H14], for which the IC50 in the assay on MCF-7 cells was greater than 100000 nM. Also, the figures for the “Degradation rate (%) of ERα in MCF-7 cells” value on ERα [1] (1nM compound) and at ERα [1] (10nM compound) were 8% and -13%, respectively. For the same compound, the “Degradation rate (%) of ERα in T-47D cells” value on ERα [2] (1nM compound) worked out at 31%; on ERα [2] (10nM compound), 27%.
The corresponding values for `O=C1CCC(N2Cc3c(ccc4c3OCC43CCN(C(=O)C4CN(CC5CCN(c6ccc([C@@H]7c8ccc(O)cc8CC[C@@H]7c7ccccc7)cc6)CC5)C4)CC3)C2=O)C(=O)N1` (some centres unmarked) [J9] are 5.64 nM, 63%, 69%, 78% and 83%.
The corresponding values for `O=C1CCC(N2Cc3cc4c(cc3C2=O)CCC2(CN(CC3CCN(c5ccc([C@@H]6c7ccc(O)cc7CC[C@@H]6c6ccccc6)cc5)CC3)C2)O4)C(=O)N1` (some centres unmarked) [H2] are 5900 nM, -77%, -70%, -11% and -23%.
With `O=C1CCC(N2Cc3c(ccc4c3OCC43CCN(CC(=O)N4CCC5(CC4)CN(c4ccc([C@@H]6c7ccc(O)cc7CC[C@@H]6c6ccccc6)cc4)C5)CC3)C2=O)C(=O)N1` (some centres unmarked) [B22], the midpoint of inhibition in the assay with MCF-7 cells, the IC50, lay at 11.8 nM. Further, the “Degradation rate (%) of ERα in MCF-7 cells” value stood at 38% at ERα [1] (1nM compound) and 70% on ERα [1] (10nM compound). In addition, the “Degradation rate (%) of ERα in T-47D cells” value at ERα [2] (1nM compound) is listed as 47%; on ERα [2] (10nM compound), 83%.
The corresponding values for `O=C1CCC(N2Cc3c(ccc4c3OCC43CCN(CCNC(=O)C4CCC5(CC4)CCN(c4ccc([C@@H]6c7ccc(O)cc7CC[C@@H]6c6ccccc6)cc4)CC5)CC3)C2=O)C(=O)N1` (some centres unmarked) [B19] are 4170 nM, 26%, 72%, 55% and 73%.
The corresponding values for `C[C@@H]1Cc2cc(O)ccc2C(c2c(F)cc(N3CCC4(CC3)CC(N3CCC(N5CCC6(CC5)COc5c6ccc6c5CN(C5CCC(=O)NC5=O)C6=O)[C@@H](F)C3)C4)cc2F)N1CC(F)F` (some centres unmarked) [I3] are 14.9 nM, 40%, 67%, 41% and 68%.
The corresponding values for `O=C1CCC(N2Cc3c(ccc4c3OCC43CCN(C4CCN(C(=O)C5CCN(c6ccc([C@@H]7c8ccc(O)cc8CC[C@@H]7c7ccccc7)cc6)CC5)CC4)CC3)C2=O)C(=O)N1` (some centres unmarked) [A78] are 3.35 nM, 64%, 78%, 79% and 89%.
Take `O=C1CCC(N2Cc3c(ccc4c3OC3(CC4)CCN(C(=O)CN4CCC5(CC4)CCN(c4ccc([C@@H]6c7ccc(O)cc7CC[C@@H]6c6ccccc6)cc4)CC5)CC3)C2=O)C(=O)N1` (some centres unmarked) [A65]: half-maximal inhibition with MCF-7 cells (IC50) required 125 nM. For the same compound, the “Degradation rate (%) of ERα in MCF-7 cells” value on ERα [1] (1nM compound) and on ERα [1] (10nM compound) was 23% in each case. Besides, the “Degradation rate (%) of ERα in T-47D cells” value at ERα [2] (1nM compound) is given as 14%; on ERα [2] (10nM compound), 50%.
Compound `O=C1CCC(N2Cc3c(ccc4c3OCC43CCN(C4CC5CCC(C4)N5C(=O)C4CCN(c5ccc([C@@H]6c7ccc(O)cc7CC[C@@H]6c6ccccc6)cc5)CC4)CC3)C2=O)C(=O)N1` (some centres unmarked) [G10] registered an IC50 in the assay on MCF-7 cells of 18.2 nM. In addition, the “Degradation rate (%) of ERα in MCF-7 cells” value on ERα [1] (1nM compound) is reported as 45%; on ERα [1] (10nM compound), 66%. The entries for the “Degradation rate (%) of ERα in T-47D cells” value at ERα [2] (1nM compound) and on ERα [2] (10nM compound) were 62% and 85%, respectively.
The corresponding values for `CCN(C(=O)CN1CCC2(CC1)COc1c2ccc2c1CN(C1CCC(=O)NC1=O)C2=O)C1CC2(CCN(c3ccc([C@@H]4c5ccc(O)cc5CC[C@@H]4c4ccccc4)cc3)CC2)C1` (some centres unmarked) [H55] are 199 nM, 28%, 62%, 56% and 83%.
The corresponding values for `CN(C(=O)CN1CCC2(CC1)COc1c2ccc2c1CN(C1CCC(=O)NC1=O)C2=O)C1CCN(c2ccc([C@@H]3c4ccc(O)cc4CC[C@@H]3c3ccccc3)cc2)CC1` (some centres unmarked) [K37] are 2510 nM, 20%, 23%, 48% and 56%.
The corresponding values for `CC1Cc2c(ccc3[nH]ncc23)C(c2c(F)cc(N3CCC4(CC3)CC(N3CCC(N5CCC6(CC5)COc5c6ccc6c5CN(C5CCC(=O)NC5=O)C6=O)C(F)C3)C4)cc2F)N1CC(F)F` (centres unmarked) [G22] are 5.08 nM, 50%, 65%, 34% and 63%.
Turning to `O=C1CCC(N2Cc3c(ccc4c3OCC43CCN(C4CN(C(=O)C5CCN(c6ccc([C@@H]7c8ccc(O)cc8CC[C@@H]7c7ccccc7)cc6)CC5)C4)CC3)C2=O)C(=O)N1` (some centres unmarked) [D4], the IC50 in the assay on MCF-7 cells turned out to be 3580 nM. Also, the “Degradation rate (%) of ERα in MCF-7 cells” value is reported as 41% on ERα [1] (1nM compound) and 69% on ERα [1] (10nM compound). Further, the “Degradation rate (%) of ERα in T-47D cells” value at ERα [2] (1nM compound) stood at 54%; at ERα [2] (10nM compound), 79%.
In the case of `O=C1CCC(N2Cc3c(ccc4c3OCC43CCN(C(=O)CC4CCN(c5ccc([C@@H]6c7ccc(O)cc7CC[C@@H]6c6ccccc6)cc5)CC4)CC3)C2=O)C(=O)N1` (some centres unmarked) [A124], in the assay with MCF-7 cells, the IC50 came out at 56400 nM. The “Degradation rate (%) of ERα in MCF-7 cells” value at ERα [1] (1nM compound) worked out at 18%; at ERα [1] (10nM compound), 20%. In addition, the “Degradation rate (%) of ERα in T-47D cells” value on ERα [2] (1nM compound) and on ERα [2] (10nM compound) was 52% each time.
Compound `O=C1CCC(N2Cc3ccc4c(c3C2=O)OCC2(CCN(C3CCC5(CC3)CN(c3ccc([C@@H]6c7ccc(O)cc7CC[C@@H]6c6ccccc6)cc3)C5)CC2)C4)C(=O)N1` (some centres unmarked) [L6] came in with an IC50 with MCF-7 cells of 930 nM. The “Degradation rate (%) of ERα in MCF-7 cells” value worked out at 14% on ERα [1] (1nM compound) and 45% at ERα [1] (10nM compound). The “Degradation rate (%) of ERα in T-47D cells” value at ERα [2] (1nM compound) was 29%; on ERα [2] (10nM compound) it was 68%.
